{"source": "patent US7767822B2", "about": "“Water-soluble tetrazolium salts” (Bayer Healthcare LLC, priority 2005, dated 2010)", "key": {"[1]": {"test": "Absorption spectra of formazans formed from the tetrazolium salts", "type": "physicochemical", "settings": "100 μM tetrazolium salt in 100 mM potassium phosphate buffer, 5-fold excess ascorbate; compared with HTC-045", "protocol": "The compounds prepared and tested for their solubility had somewhat different spectral properties. The absorption spectra of each formazan formed from the tetrazolium salt and tested for solubility in Table 1 was measured with a Hewlett Packard Model 8453 diode-array UV-visible spectrophotometer. Solutions of 100 μM of a tetrazolium salt were prepared in 100 mM potassium phosphate buffer. The formazan spectra were measured after the addition of 5-fold excess ascorbate acid salt to convert the tet salts to their formazans."}, "[2]": {"test": "Solubility of tetrazolium salts in 0.2M phosphate buffer", "type": "physicochemical"}, "[3]": {"settings": "0.2M phosphate buffer, pH ~7.5, room temperature"}}, "note": "Read-outs that look alike come from different tables or passages of the source."}
{"molecule": "CCOc1ccc2nc(-n3nc(-c4ccc(OCCC[N+](C)(C)C)c(OC)c4)n[n+]3-c3ccccc3OCCC[N+](C)(C)C)sc2c1.O=N[O-].[Br-].[Br-]", "note": "[Example 7]", "values": [{"measurement": "shape of formazan absorbance versus wavelength curve", "setting": "[1]", "value": "relatively flat"}, {"measurement": "Solubilility", "setting": "[2]", "value": 169, "unit": "mM"}]}
{"molecule": "5-[4-(3-trimethylammonium)propoxy-3-methoxy-phenyl]-3-[2-(3-trimethylammonium) propoxy-phenyl]-2-(6-bromo-benzothiazol-2-yl)-2H-tetrazolium dibromo nitrite salt [Example 8]", "values": [{"measurement": "shape of formazan absorbance versus wavelength curve", "setting": "[1]", "value": "relatively flat"}]}
{"molecule": "5-Benzo[1,3 dioxol-5-yl]-3-[2-(3-trimethylammonium) propoxy-phenyl]-2-(5-chloro-4-difluoromethyl-thiazol-2-yl)-2H-tetrazolium bromo nitrite salt [Example 1]", "values": [{"measurement": "shape of formazan absorbance versus wavelength curve", "setting": "[1]", "value": "relatively flat"}]}
{"molecule": "5-Benzo[1,3 dioxol-5-yl]-3-[2-(3-trimethylammonium) propoxy-phenyl]-2(benzothiazol-2-yl)-2 H-tetrazolium bromo nitrite salt [Example 4]", "values": [{"measurement": "shape of formazan absorbance versus wavelength curve", "setting": "[1]", "value": "relatively flat"}]}
{"molecule": "5-Benzo[1,3 dioxol-5-yl]-3-[2-(3-trimethylammonium) propoxy-phenyl]-2-(5-chloro-4-difluoromethyl-thiazol-2-yl)-2 H-tetrazolium bromo tetrafluoroborate salt [Example 2]", "values": [{"measurement": "shape of formazan absorbance versus wavelength curve", "setting": "[1]", "value": "relatively flat"}, {"measurement": "Solubilility", "setting": "[2]", "value": 5, "unit": "mM"}]}
{"molecule": "Br.CN(C)CCCOc1ccccc1-[n+]1nc(-c2ccc3c(c2)OCO3)nn1-c1nc(C(F)F)c(Cl)s1.O=N[O-]", "note": "[Example 3, 5-Benzo[1,3 dioxol-5-yl]-3-[2-(3-dimethylhydrogenammoniun)propoxy-phenyl]-2-(5-chloro-4-difluoromethyl-thiazol-2-yl)-2 H-tetrazolium bromo nitrite salt]", "values": [{"measurement": "shape of formazan absorbance versus wavelength curve", "setting": "[1]", "value": "relatively flat"}, {"measurement": "Solubilility", "setting": "[2]", "value": 9, "unit": "mM"}]}
{"molecule": "5-Benzo[1,3 dioxol-5-yl]-3-[2-(3-trimethylammonium) propoxy-phenyl]-2-(6-methoxynapthylthiazol-2-yl)-2 H-tetrazolium bromo nitrite salt [Example 5]", "values": [{"measurement": "shape of formazan absorbance versus wavelength curve", "setting": "[1]", "value": "rising absorbance verses wavelength curve"}]}
{"molecule": "5-[4-(3-trimethylammonium) propoxy-3-methoxy-phenyl]-3-[2-(3-trimethylammonium) propoxy-phenyl]-2-(6-ethoxy-benzothiazol-2-yl)-2H-tetrazolium tribromide salt [Example 9]", "values": [{"measurement": "Solubilility", "setting": "[2]; [3]", "value": 260, "unit": "mM"}]}
{"molecule": "COc1cc(-c2nn(-c3nc(C(F)F)c(Cl)s3)[n+](-c3ccccc3OCCC[N+](C)(C)C)n2)ccc1OCCC[N+](C)(C)C.O=N[O-].[Br-].[Br-]", "note": "[Example 6, 5-[4-(3-trimethylammonium)propoxy-3-methoxy-phenyl]-3-[2-(3-trimethylammonium)propoxy-phenyl]-2-(5-chloro-4-difluoromethyl-thiazol-2-yl)-2H-tetrazolium dibromo nitrite salt]", "values": [{"measurement": "shape of formazan absorbance versus wavelength curve", "setting": "[1]", "value": "relatively flat"}, {"measurement": "Solubilility", "setting": "[2]; [3]", "value": 181, "unit": "mM"}]}
